Two molecules from publication PMC12503911, “Cytotoxicity of Atropisomeric [1,1′‐Binaphthalene]‐2,2′‐Diamines (BINAM) and Analogs in Human Cancer Cells: Enantioselectivity, Structure–Activity Relationships, and Mechanism” (Chemmedchem, 2025) can be followed below.

What all share (experiment): biochemical
What all share (design): 33PanQinase radiometric kinase activity assay, residual activity in % of control, contract lab Reaction Biology

The target in one assay is T1, CHK2 (Homo sapiens, UniProt O96017).
T1 construct: gene CHEK2
T1 sequence (O96017 whole entry): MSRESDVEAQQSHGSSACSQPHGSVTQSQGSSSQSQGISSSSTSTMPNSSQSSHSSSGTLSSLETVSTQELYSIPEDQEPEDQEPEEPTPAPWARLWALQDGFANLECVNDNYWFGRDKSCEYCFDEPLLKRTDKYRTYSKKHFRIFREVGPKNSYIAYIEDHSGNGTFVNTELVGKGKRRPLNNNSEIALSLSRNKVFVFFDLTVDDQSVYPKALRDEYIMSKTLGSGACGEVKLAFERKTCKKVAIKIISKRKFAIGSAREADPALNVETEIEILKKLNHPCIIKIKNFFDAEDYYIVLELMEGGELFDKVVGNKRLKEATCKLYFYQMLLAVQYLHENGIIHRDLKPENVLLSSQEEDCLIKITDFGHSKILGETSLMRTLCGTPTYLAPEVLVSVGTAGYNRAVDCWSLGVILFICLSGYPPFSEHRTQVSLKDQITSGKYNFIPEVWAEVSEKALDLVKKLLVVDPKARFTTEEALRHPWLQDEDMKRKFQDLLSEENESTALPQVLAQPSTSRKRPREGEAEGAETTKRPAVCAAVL
The note with it: mean of intraexperimental duplicates, n = 1. On the procedure: (§1) Kinase Screening was performed at Reaction Biology (Freiburg, Germany) by using the ^33PanQinase Assay.^[ [90] ^] Based on this knowledge, we commissioned a kinase screening by the firm Reaction Biology, targeting those kinases whose inhibition has shown an indirect effect on microtubules. In our selection, we included additional kinases that are known to be involved in centrosome amplification (PLK4^[ [82] ^]), centrosome clustering (CDK1/2,^[ [83] ^] PLK1^[ [84] ^]), spindle multipolarity (SRC^[ [85] ^]), microtubule dynamics (AKT1^[ [86] ^]), and LIMK1/2 activation (ROCK1^[ [87] ^]) or are crucial for the mitosis (BUB1B, NEK2/9, WEE1^[ [88] ^]). Nonetheless, 1(R) and 1(S) at 10 µM had almost no inhibitory effects on any of the chosen kinases (Table 4 ). Only Aurora A (mean residual activity for 1(R): 86%, 1(S): 98%) and ASK1 (mean residual activity for 1(R): 90%, 1(S): 117%) were slightly enantioselectively impacted. However, we theorize that those marginal inhibitions are not explanatory for the antiproliferative and morphological effects of 1(R) on cancer cells.

The target of the next assay is LIMK2 (Homo sapiens, UniProt P53671). The settings on record: mean of intraexperimental duplicates, n = 1. The method, then:
as §1

The target of a further assay is AKT1 (Homo sapiens, UniProt P31749). The settings on record: mean of intraexperimental duplicates, n = 1. The method, then:
as §1

The next assay addresses ROCK1 (Homo sapiens, UniProt Q13464). The note with it: mean of intraexperimental duplicates, n = 1. The method, then:
as §1

The next assay concerns the target CDK2/CycA2 (Homo sapiens, UniProt P24941). The settings on record: mean of intraexperimental duplicates, n = 1. On the procedure: as §1
The target of another assay is T2, Mps1/TTK (Homo sapiens, UniProt P33981).
T2 sequence (P33981 1-857): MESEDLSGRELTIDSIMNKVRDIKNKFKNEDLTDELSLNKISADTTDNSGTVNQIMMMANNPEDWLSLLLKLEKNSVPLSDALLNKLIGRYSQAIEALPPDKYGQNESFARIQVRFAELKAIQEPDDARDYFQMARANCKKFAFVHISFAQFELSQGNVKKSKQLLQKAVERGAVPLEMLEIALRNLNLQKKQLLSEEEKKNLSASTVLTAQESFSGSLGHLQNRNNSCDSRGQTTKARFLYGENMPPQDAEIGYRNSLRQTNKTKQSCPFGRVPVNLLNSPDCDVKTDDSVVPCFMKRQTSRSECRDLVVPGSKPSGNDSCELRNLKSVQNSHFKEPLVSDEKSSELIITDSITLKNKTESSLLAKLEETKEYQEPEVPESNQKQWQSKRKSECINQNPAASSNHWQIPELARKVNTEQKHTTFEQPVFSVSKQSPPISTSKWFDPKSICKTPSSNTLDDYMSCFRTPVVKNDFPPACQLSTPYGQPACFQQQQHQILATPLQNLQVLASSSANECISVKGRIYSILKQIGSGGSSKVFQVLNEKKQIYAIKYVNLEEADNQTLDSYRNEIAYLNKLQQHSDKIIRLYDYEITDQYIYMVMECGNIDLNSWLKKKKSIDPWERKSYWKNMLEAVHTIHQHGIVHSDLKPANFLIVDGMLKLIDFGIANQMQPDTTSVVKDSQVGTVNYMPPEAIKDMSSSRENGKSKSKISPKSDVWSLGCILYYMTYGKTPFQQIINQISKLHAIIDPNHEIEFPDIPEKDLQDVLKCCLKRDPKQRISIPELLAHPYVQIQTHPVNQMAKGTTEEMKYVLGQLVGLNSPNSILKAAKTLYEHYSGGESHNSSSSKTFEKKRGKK
The settings on record: mean of intraexperimental duplicates, n = 1. The method, then:
as §1

Another assay has as its target BUB1B (Homo sapiens, UniProt O60566). The note with it: mean of intraexperimental duplicates, n = 1. On the procedure:
as §1

The target in a further assay is WEE1 (Homo sapiens, UniProt P30291). The note with it: mean of intraexperimental duplicates, n = 1. On the procedure:
as §1

The target in another assay is T3, AuroraA (Homo sapiens, UniProt O14965).
T3 construct: gene AURKA
T3 sequence (O14965 1-403): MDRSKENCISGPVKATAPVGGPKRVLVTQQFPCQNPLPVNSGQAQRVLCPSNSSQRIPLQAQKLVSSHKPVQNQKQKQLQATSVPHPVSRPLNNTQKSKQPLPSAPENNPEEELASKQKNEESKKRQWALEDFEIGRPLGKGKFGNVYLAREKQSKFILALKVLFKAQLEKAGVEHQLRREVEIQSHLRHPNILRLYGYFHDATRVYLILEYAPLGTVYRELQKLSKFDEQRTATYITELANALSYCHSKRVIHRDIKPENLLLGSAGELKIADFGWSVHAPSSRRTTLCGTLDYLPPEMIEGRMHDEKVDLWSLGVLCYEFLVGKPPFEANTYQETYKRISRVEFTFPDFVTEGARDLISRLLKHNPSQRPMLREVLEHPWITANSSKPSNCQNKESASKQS
The note with it: mean of intraexperimental duplicates, n = 1; read-out: Residual activities [% of control] / 1(S) 10 µM. On the procedure: as §1

Setting [1] is: read-out: Residual activities [% of control] / 1(S) 10 µM.
The mark [2] stands for this setting: read-out: Residual activities [% of control] / 1(R) 10 µM.

Where two headings read alike, the source gives them in different places.

Sequence of AKT1 (P31749 whole entry): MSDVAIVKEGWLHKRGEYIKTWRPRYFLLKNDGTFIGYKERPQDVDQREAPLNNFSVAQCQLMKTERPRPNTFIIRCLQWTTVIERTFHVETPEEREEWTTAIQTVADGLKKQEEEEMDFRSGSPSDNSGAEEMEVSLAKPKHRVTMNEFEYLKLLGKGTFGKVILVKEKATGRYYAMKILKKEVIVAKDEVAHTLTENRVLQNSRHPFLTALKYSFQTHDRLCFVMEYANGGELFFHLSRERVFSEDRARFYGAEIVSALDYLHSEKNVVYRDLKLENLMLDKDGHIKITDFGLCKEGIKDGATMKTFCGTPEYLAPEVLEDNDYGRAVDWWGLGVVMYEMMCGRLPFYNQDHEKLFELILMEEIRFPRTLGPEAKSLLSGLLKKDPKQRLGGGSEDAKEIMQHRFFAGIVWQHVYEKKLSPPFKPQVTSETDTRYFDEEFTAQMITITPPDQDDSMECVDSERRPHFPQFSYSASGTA
Sequence of ROCK1 (Q13464 whole entry): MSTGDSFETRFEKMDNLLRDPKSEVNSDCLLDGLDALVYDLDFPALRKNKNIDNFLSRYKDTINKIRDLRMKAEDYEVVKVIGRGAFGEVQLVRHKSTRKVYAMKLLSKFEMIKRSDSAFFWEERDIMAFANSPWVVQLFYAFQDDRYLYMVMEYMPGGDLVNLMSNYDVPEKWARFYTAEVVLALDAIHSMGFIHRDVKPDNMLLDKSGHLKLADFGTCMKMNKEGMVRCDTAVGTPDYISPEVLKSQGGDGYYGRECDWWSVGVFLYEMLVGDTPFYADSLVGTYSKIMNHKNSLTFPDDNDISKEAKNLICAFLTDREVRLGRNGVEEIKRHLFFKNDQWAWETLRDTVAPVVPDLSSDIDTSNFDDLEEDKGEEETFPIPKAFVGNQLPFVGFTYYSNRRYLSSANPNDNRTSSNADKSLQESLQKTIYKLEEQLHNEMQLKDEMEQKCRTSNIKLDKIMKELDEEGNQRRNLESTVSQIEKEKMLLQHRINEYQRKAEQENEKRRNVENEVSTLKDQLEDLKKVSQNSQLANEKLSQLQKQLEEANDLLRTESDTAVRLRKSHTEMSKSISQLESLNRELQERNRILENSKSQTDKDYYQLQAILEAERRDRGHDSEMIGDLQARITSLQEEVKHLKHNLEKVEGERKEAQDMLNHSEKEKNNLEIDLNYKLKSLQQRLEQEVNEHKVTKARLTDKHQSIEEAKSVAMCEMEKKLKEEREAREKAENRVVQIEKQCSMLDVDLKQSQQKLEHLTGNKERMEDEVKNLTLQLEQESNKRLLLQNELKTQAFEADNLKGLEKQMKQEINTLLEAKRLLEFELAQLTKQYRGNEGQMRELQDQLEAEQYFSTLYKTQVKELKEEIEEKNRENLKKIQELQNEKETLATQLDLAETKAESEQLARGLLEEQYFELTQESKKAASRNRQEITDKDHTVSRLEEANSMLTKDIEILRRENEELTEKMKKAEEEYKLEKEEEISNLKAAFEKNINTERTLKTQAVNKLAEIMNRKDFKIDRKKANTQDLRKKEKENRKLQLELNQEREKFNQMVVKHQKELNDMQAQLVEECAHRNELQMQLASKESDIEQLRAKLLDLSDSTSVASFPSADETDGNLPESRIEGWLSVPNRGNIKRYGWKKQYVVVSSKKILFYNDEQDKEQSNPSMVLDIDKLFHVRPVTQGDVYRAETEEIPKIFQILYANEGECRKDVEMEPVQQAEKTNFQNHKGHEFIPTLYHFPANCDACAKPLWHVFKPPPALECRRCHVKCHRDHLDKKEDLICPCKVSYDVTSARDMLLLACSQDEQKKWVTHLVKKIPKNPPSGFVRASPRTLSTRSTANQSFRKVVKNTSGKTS
Sequence of WEE1 (P30291 whole entry): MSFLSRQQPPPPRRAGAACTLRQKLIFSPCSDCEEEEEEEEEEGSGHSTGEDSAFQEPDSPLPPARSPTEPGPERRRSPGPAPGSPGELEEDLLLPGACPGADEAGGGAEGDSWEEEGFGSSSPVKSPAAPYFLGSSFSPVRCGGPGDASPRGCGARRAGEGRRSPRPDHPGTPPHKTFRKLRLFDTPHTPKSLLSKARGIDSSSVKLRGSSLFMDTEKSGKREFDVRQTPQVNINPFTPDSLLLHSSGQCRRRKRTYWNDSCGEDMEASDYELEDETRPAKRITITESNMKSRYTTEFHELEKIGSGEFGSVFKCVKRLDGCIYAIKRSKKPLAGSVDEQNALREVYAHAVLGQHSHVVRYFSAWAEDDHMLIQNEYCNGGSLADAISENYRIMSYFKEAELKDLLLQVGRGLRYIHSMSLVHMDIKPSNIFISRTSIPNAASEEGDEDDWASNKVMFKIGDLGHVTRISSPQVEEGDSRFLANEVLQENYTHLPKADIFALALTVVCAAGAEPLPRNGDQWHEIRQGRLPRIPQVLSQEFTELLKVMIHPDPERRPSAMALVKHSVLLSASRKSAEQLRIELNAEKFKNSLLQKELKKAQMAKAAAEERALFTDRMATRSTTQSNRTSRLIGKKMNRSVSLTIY
Sequence of LIMK2 (P53671 whole entry): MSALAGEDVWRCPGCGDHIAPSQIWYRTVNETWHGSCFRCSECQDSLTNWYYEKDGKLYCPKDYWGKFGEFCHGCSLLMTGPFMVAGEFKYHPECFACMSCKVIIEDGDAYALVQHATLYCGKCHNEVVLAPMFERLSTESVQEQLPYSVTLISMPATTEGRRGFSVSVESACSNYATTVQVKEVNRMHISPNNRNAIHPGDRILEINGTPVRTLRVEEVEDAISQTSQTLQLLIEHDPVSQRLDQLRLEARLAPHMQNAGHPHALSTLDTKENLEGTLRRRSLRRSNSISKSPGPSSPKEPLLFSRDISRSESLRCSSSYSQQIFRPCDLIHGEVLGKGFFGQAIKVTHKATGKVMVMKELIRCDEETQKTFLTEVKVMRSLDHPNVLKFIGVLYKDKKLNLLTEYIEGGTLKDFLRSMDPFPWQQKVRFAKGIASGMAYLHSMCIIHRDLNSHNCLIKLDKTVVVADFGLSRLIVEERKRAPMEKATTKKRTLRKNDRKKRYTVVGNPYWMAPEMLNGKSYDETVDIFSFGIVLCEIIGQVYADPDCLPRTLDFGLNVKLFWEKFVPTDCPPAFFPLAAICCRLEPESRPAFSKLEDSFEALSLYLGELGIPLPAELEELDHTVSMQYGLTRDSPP
Sequence of BUB1B (O60566 whole entry): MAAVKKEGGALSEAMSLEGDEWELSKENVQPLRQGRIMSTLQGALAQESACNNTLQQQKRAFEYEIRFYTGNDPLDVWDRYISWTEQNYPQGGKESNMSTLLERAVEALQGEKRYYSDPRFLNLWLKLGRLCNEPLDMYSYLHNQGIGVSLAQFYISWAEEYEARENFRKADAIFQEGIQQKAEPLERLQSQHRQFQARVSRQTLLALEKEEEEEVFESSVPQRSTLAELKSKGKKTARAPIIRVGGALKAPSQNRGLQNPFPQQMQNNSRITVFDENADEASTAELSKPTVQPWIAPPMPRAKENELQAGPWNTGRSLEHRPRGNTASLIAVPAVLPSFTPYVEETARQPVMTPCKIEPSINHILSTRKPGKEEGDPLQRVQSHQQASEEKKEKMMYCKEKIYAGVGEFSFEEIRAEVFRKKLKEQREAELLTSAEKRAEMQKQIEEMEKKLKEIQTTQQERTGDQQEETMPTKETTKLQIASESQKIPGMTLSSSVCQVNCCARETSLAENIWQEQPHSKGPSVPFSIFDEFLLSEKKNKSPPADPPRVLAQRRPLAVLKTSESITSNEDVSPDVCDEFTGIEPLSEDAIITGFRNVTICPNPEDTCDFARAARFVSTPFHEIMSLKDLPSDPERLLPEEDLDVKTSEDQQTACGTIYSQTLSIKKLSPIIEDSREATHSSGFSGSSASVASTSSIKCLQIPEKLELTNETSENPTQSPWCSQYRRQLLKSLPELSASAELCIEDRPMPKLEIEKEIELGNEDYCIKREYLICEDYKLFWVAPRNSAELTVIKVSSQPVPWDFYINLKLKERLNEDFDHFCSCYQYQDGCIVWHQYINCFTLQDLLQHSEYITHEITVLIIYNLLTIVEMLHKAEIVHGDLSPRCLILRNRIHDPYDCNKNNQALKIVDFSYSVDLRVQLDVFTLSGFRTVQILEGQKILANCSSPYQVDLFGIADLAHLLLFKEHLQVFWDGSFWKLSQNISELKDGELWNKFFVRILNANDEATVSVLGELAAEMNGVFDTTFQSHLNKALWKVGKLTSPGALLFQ

Take `Nc1ccc2ccccc2c1-c1c(N)ccc2ccccc12` [1(S), S‐BINAM]: the remaining activity at 10 µM on CHK2 (setting [1]) turned out to be 104%; on LIMK2 (setting [1]) it was 98%; on AKT1 (setting [1]) it was 101%; on ROCK1 (setting [1]), 97%; on CDK2/CycA2 (setting [1]), 92%; on Mps1/TTK (setting [1]), 97%. Besides, the figures for the remaining activity at 10 µM at BUB1B (setting [1]), at WEE1 (setting [1]) and at AuroraA were 111%, 98% and 98%, respectively.
For `Nc1ccc2ccccc2c1-c1c(N)ccc2ccccc12` [1(R), (R)‐[1,1′‐binaphthalene]‐2,2′‐diamine], the remaining activity at 10 µM turned out to be 97% on CHK2 (setting [2]); 106% on LIMK2 (setting [2]); 99% on AKT1 (setting [2]); 100% at ROCK1 (setting [2]); 95% on CDK2/CycA2 (setting [2]); 98% on Mps1/TTK (setting [2]). The remaining activity at 10 µM was found to be 118% on BUB1B (setting [2]) and 99% at WEE1 (setting [2]).
